# Data reported in patent publication US6627649B1, “Pharmaceutical compositions containing in combination two antagonists selective of arginine-vassopressin V receptors, even of V1 a and V2 receptors” (Sanofi-Synthelabo, priority 1998, dated 2003).
# Experiments:
# [1] = target: human V1a receptors (Homo sapiens, UniProt P37288); settings: various species, in particular human V1a receptors; J. Clin. Invest., 1993, 92 224-231; cited from earlier work
# [2] = target: human V2 receptors (Homo sapiens, UniProt P30518); settings: cited from earlier work
# Sequence of human V2 receptors (P30518 whole entry): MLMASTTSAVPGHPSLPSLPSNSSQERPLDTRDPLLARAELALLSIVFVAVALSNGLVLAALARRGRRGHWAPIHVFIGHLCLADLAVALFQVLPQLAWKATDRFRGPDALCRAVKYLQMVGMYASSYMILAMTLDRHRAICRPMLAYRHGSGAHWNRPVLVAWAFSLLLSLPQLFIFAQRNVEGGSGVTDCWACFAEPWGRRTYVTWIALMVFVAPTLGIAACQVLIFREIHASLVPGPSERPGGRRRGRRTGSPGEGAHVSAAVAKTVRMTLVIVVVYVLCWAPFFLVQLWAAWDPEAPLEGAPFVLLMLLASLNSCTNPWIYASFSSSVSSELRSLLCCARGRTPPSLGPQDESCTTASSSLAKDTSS
# [3] = system: normally hydrated conscious rat; test: water diuresis induced in the normally hydrated conscious rat (urinary volume, osmolality, Na+ and K+ excretion over 24 h); format: in vivo, Sprague Dawley male rats; settings: for effect on urinary excretion (in words) / effect on urinary excretion of Na+ and K+ ions (in words) / effect on urinary osmolality (in words): oral, over 24 hours
# Protocol: Serradeil-Le Gal et al., J. Clin. Invest. 1996, 98, 2729-2738.
# The various assays are performed on Sprague Dawley male rats (280+/−20 g) obtained from Iffa Credo (France).
# Twenty four hours before the start of the study, the rats were randomized and placed in metabolic cages with food and water ad libitum. They received orally 3 ml/kg of a 0.6% aqueous solution of methylcellulose. The urines were collected over a 24 hour period, i.e. day D-1.
# The next morning the rats are treated orally (solvent or products alone or in combination) and returned individually to their metabolic cage for a period of 24 hours with food and water ad libitum. The urines are collected over a period of 24 hours after treatment, i.e. day D-0.
# Urinary osmolality and the urinary excretion of Na^+ and K^+ ions are also measured during the 24 hour period before and after treatment. The urinary osmolality is measured with a freezing point depression osmometer (Fisk OS 110 model, Elvetec, Marseille, France) and the urinary concentrations of sodium and potassium are measured with a flame photometer (IL 943, Instruments Laboratories, Marseille, France).
# The compounds alone (compound A, compound B) or in combination (compound A+compound B) are suspended in a 0.6% aqueous solution of methylcellulose and administered by gavage in a final volume of 3 ml/kg.
# Compound B was used in the form of its dihydrogen phosphate monohydrate salt, the doses indicated are expressed in terms of the base.
# The results are expressed in the form of the mean+/−SEM (standard error of the mean). The statistical analysis of the results is performed by means of a two factor variance analysis with repeated measurements of the time factor. The comparison of the means is made with the aid of the Dunnett test for a comparison with respect to a time or group of reference. Only the values of p lower than 5% are considered to be significant (p<0.05).
# ASSAY No. 1: Comparative effect on urinary excretion, urinary osmolality and excretion of the Na^+ and K^+ ions in the rat after oral administration of compound A alone, compound B alone and of the combination compound A^+ compound B.
# a) Study Performed by Oral Administration of a Fixed Dose of Compound A (30 mg/kg) combined with increasing doses of compound B (0.3, 1 or 3 mg/kg).
# b) Study Performed by Oral Administration of a Fixed Dose of Compound B (1 mg/kg) combined with increasing doses of compound A (3,10 or 30 mg/kg).
# [4] = study a, 30 mg/kg oral, D0 0-24 h after treatment
# [5] = study a, 30 mg/kg oral, D-0 0-24 h after treatment
# [6] = study a, group of 30 mg/kg oral, D-1 0-24 h, day before treatment (solvent only)
# [7] = study a, compound A 30 mg/kg, compound B 0.3, 1 or 3 mg/kg, alone or combined
# [8] = study b, 30 mg/kg oral, D0 0-24 h after treatment
# [9] = study b, group of 30 mg/kg oral, D-1 0-24 h, day before treatment (solvent only)
# [10] = study a, 0.3 mg/kg oral, D0 0-24 h after treatment
# [11] = study a, 0.3 mg/kg oral, D-0 0-24 h after treatment
# [12] = study a, 1 mg/kg oral, D0 0-24 h after treatment
# [13] = study a, 1 mg/kg oral, D-0 0-24 h after treatment
# [14] = study a, 3 mg/kg oral, D0 0-24 h after treatment
# [15] = study a, 3 mg/kg oral, D-0 0-24 h after treatment
# [16] = study a, group of 0.3 mg/kg oral, D-1 0-24 h, day before treatment (solvent only)
# [17] = study a, group of 1 mg/kg oral, D-1 0-24 h, day before treatment (solvent only)
# [18] = study a, group of 3 mg/kg oral, D-1 0-24 h, day before treatment (solvent only)
# [19] = study b, 1 mg/kg oral, D0 0-24 h after treatment
# [20] = study b, group of 1 mg/kg oral, D-1 0-24 h, day before treatment (solvent only)
# [21] = study b, compound B 1 mg/kg alone or combined with compound A 3, 10 or 30 mg/kg
# Sequence of human V1a receptors (P37288 whole entry): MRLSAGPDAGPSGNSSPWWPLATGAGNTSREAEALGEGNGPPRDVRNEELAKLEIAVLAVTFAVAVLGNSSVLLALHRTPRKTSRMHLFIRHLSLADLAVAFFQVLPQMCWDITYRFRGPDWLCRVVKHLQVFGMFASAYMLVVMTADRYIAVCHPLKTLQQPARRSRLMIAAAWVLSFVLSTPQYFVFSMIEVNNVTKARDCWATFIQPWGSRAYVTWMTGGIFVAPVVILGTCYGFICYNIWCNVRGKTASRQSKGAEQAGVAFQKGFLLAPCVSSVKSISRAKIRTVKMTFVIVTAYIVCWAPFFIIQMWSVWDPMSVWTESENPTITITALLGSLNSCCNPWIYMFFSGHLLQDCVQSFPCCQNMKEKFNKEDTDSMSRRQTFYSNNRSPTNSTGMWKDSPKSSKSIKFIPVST
structure (smiles),measurement,setting,value
"COc1ccc(S(=O)(=O)N2c3ccc(Cl)cc3[C@](O)(c3ccccc3Cl)[C@@H]2C(=O)N2CCC[C@H]2C(N)=O)cc1OC [Compound A, (2S)-1-{(2R,3S)-5-chloro-3-(2-chlorophenyl)-1-(3,4-dimethoxybenzenesulfonyl)-3-hydroxy-2,3-dihydro-1H-indole-2-carbonyl}pyrrolidine-2-carboxamide]",V1a arginine vasopressin receptor antagonism (in words),[1],potent and selective
same,affinity for the V2 receptors (in words),[2]; literature description,low affinity
same,urinary excretion of K+,[3]; [4],2190 µmol
same,urinary excretion of Na+,[3]; [4],1668 µmol
same,Urinary osmolality,[3]; [5],2462 +/− 379^ mOsmol/kg H2O
same,Urinary volume,[3]; [5],7.3 ± 1.2 mL
same,Urinary osmolality,[3]; [6],1409 +/− 13 mOsmol/kg H2O
same,Urinary volume,[3]; [6],10.7 ± 1.1 mL
same,urinary excretion of K+,[3]; [6],2265 µmol
same,urinary excretion of Na+,[3]; [6],1903 µmol
same,effect on urinary excretion (in words),[3]; [7],does not modify
same,effect on urinary excretion of Na+ and K+ ions (in words),[3]; [7],does not alter
same,effect on urinary osmolality (in words),[3]; [7],does not modify
same,Urinary osmolality,[3]; [8],2462 +/− 379^ mOsmol/kg H2O
same,Urinary volume,[3]; [8],7.3 +/− 1.2^ ml
same,urinary excretion of K+,[3]; [8],2190 µmol
same,urinary excretion of Na+,[3]; [8],1668 µmol
same,Urinary osmolality,[3]; [9],1409 +/− 13 mOsmol/kg H2O
same,Urinary volume,[3]; [9],10.7 ± 1.1 mL
same,urinary excretion of K+,[3]; [9],2265 µmol
same,urinary excretion of Na+,[3]; [9],1903 µmol
"CCOc1ccc2c(c1)C1(CCC(OCCN3CCOCC3)CC1)C(=O)N2S(=O)(=O)c1ccc(C(=O)NC(C)(C)C)cc1OC (stereo not drawn) [Compound B, 1-{4-(N-tert-butylcarbamoyl)-2-methoxybenzenesulfonyl}-5-ethoxy-3-spiro{4-(2-morpholino-ethyloxy)cyclohexane}indol-2-one]",V2 arginine vasopressin receptor antagonism (in words),"[2]; various species, in particular human V2 receptors, J. Clin. Invest., 1996, 98, 2729-2738",potent and selective
same,urinary excretion of K+,[3]; [10],2254 µmol
same,urinary excretion of Na+,[3]; [10],1668 µmol
same,Urinary osmolality,[3]; [11],1075 +/− 165^a mOsmol/kg H2O
same,Urinary volume,[3]; [11],15 ± 2 mL
same,urinary excretion of K+,[3]; [12],2334 µmol
same,urinary excretion of Na+,[3]; [12],1783 µmol
same,Urinary osmolality,[3]; [13],618 +/− 27^a mOsmol/kg H2O
same,Urinary volume,[3]; [13],25 +/− 2.2^a ml
same,urinary excretion of K+,[3]; [14],2648 µmol
same,urinary excretion of Na+,[3]; [14],2168 µmol
same,Urinary osmolality,[3]; [15],292 +/− 40^a mOsmol/kg H2O
same,Urinary volume,[3]; [15],72.9 +/− 11.1^a ml
same,Urinary osmolality,[3]; [16],1371 +/− 125 mOsmol/kg H2O
same,Urinary volume,[3]; [16],9.1 ± 0.7 mL
same,urinary excretion of K+,[3]; [16],2001 µmol
same,urinary excretion of Na+,[3]; [16],1772 µmol
same,Urinary osmolality,[3]; [17],1376 +/− 99 mOsmol/kg H2O
same,Urinary volume,[3]; [17],9.1 ± 0.7 mL
same,urinary excretion of K+,[3]; [17],2034 µmol
same,urinary excretion of Na+,[3]; [17],1840 µmol
same,Urinary osmolality,[3]; [18],1443 +/− 46 mOsmol/kg H2O
same,Urinary volume,[3]; [18],9.5 ± 0.6 mL
same,urinary excretion of K+,[3]; [18],2022 µmol
same,urinary excretion of Na+,[3]; [18],1903 µmol
same,effect on urinary excretion (in words),[3]; [7],significantly increases
same,effect on urinary excretion of Na+ and K+ ions (in words),[3]; [7],no effect
same,effect on urinary osmolality (in words),[3]; [7],significantly diminishes
same,Urinary osmolality,[3]; [19],616 +/− 51^a mOsmol/kg H2O
same,Urinary volume,[3]; [19],31.6 +/− 3.5^a ml
same,urinary excretion of K+,[3]; [19],2944 µmol
same,urinary excretion of Na+,[3]; [19],2203 µmol
same,Urinary osmolality,[3]; [20],1308 +/− 68 mOsmol/kg H2O
same,Urinary volume,[3]; [20],11.7 ± 1.5 mL
same,urinary excretion of K+,[3]; [20],2519 µmol
same,urinary excretion of Na+,[3]; [20],2039 µmol
same,effect on urinary excretion (in words),[3]; [21],significantly increases
same,effect on urinary excretion of Na+ and K+ ions (in words),[3]; [21],no effect
same,effect on urinary osmolality (in words),[3]; [21],significantly diminishes
